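Cells were grown in 96-well plates and exposed to each compound for 48 hours at five concentrations; endpoints were interpolated linearly between bracketing concentrations, or set to the highest concentration if not reached. GI50 marks 50% less growth.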 The source made the active and inactive calls. Cut-off read from the data, not from the text of the source: active = GI50 up to about 1.1 µM and inactive = higher.
How the values were obtained:
Assay in all cases: DTP human tumour cell line panel, 48 h
HCT-15 = test system: HCT-15
MCF7 = test system: MCF7
MDA-MB-231 = test system: MDA-MB-231
BT-549 = test system: BT-549
UO-31 = test system: UO-31
HT-29 = test system: HT-29
T47D = test system: T47D
COLO 205 = test system: COLO 205
Hs-578T = test system: Hs-578T
ACHN = test system: ACHN
HCT-116 = test system: HCT-116
IGROV-1 = test system: IGROV-1
OVCAR-8 = test system: OVCAR-8
CAKI-1 = test system: CAKI-1
A549 = test system: A549
U-251 = test system: U-251
HCC 2998 = test system: HCC 2998
Malme-3M = test system: Malme-3M
SF-539 = test system: SF-539
SN12C = test system: SN12C

SMILES	GI50 (HCT-15)	GI50 (MCF7)	GI50 (MDA-MB-231)	GI50 (BT-549)	GI50 (UO-31)	GI50 (HT-29)	GI50 (T47D)	GI50 (COLO 205)	GI50 (Hs-578T)	GI50 (ACHN)	GI50 (HCT-116)	GI50 (IGROV-1)	GI50 (OVCAR-8)	GI50 (CAKI-1)	GI50 (A549)	GI50 (U-251)	GI50 (HCC 2998)	GI50 (Malme-3M)	GI50 (SF-539)	GI50 (SN12C)
Cc1cn(C2CC(N=[N+]=[N-])C(CO)O2)c(=O)n(CCCCO)c1=O (stereo not given)	> 100 µM	> 100 µM (inactive)	> 100 µM (inactive)	> 100 µM (inactive)	> 100 µM (inactive)	> 100 µM (inactive)	> 100 µM (inactive)	> 100 µM (inactive)	> 100 µM (inactive)	> 100 µM (inactive)	> 100 µM (inactive)	> 100 µM (inactive)	> 100 µM (inactive)	> 100 µM (inactive)	> 100 µM (inactive)	> 100 µM (inactive)	> 100 µM (inactive)	> 100 µM (inactive)	> 100 µM (inactive)	> 100 µM (inactive)
O=c1[nH]c2ccccc2c(=O)c2cc3ccccc3cc12	74.8 µM	> 100 µM (inactive)	6.35 µM (inactive)	15.7 µM (inactive)	35.3 µM (inactive)	> 100 µM (inactive)	> 100 µM (inactive)	88.7 µM (inactive)	8.81 µM (inactive)	33.7 µM (inactive)	5.78 µM (inactive)	48.2 µM (inactive)	10 µM (inactive)	16.2 µM (inactive)	31.3 µM (inactive)	6.28 µM (inactive)	> 100 µM (inactive)	45.6 µM (inactive)	20.9 µM (inactive)	71.4 µM (inactive)
COc1ccc(-c2nc(N3CCCC3)no2)cc1	58.9 µM	43.2 µM (inactive)	50.1 µM (inactive)	43.3 µM (inactive)	49.4 µM (inactive)	54.7 µM (inactive)	26.5 µM (inactive)	> 100 µM (inactive)	24.9 µM (inactive)	35.8 µM (inactive)	> 91.8 µM (inactive)	18.9 µM (inactive)	34.5 µM (inactive)	51.6 µM (inactive)	38 µM (inactive)	86.3 µM (inactive)	73.5 µM (inactive)	11.6 µM (inactive)	24 µM (inactive)	74 µM (inactive)
CCCn1c2ccccc2c2ccc3c(c21)C(=O)C=CC3=O	2.24 µM	2.19 µM (inactive)	2.06 µM (inactive)	2.21 µM (inactive)	4.06 µM (inactive)	> 10 µM (inactive)	2 µM (inactive)	2.39 µM (inactive)	7.03 µM (inactive)	1.83 µM (inactive)	1.63 µM (inactive)	3.31 µM (inactive)	2.54 µM (inactive)	2.78 µM (inactive)	> 10 µM (inactive)	> 7.59 µM (inactive)	> 9.68 µM (inactive)	1.83 µM (inactive)	> 4.8 µM (inactive)	3.78 µM (inactive)
C=CC/C(C(=O)OC)=C(/C(=O)OC)N(CCC)CCC	> 100 µM	63.2 µM (inactive)	> 100 µM (inactive)	> 100 µM (inactive)	94.8 µM (inactive)	> 100 µM (inactive)	> 100 µM (inactive)	99.5 µM (inactive)	> 100 µM (inactive)	86.9 µM (inactive)	57.9 µM (inactive)	> 100 µM (inactive)	> 100 µM (inactive)	> 100 µM (inactive)	> 100 µM (inactive)	59.4 µM (inactive)	> 100 µM (inactive)	> 100 µM (inactive)	> 100 µM (inactive)	> 100 µM (inactive)
Cc1cc2c(c3c1c1ccccc1n3C)C(=O)C=CC2=O	13.7 µM	10.9 µM (inactive)	25.7 µM (inactive)	14.1 µM (inactive)	16.1 µM (inactive)	31 µM (inactive)	13 µM (inactive)	29.1 µM (inactive)	24.8 µM (inactive)	21.3 µM (inactive)	18.8 µM (inactive)	39.6 µM (inactive)	22.9 µM (inactive)	23.2 µM (inactive)	44.6 µM (inactive)	19.3 µM (inactive)	33 µM (inactive)	28.3 µM (inactive)	23.8 µM (inactive)	27.2 µM (inactive)

Source: ChEMBL document CHEMBL1201862, “PubChem BioAssay data set” (2004)
